In PubChem BioAssay AID588780 (Sanford-Burnham Center for Chemical Genomics, 2011):
The source made the active and inactive calls.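 Rule for the calls: active = compounds whose fitted half-maximal concentration in the cell-protection dose series is at or below a set limit; inactive = the rest.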

The compounds below were run on H9c2 cardiomyocytes, 2-deoxyglucose stress, ATP luminescence, 2 h (assay: protection of cardiomyocytes from 2-deoxyglucose injury, dose response, cell-based, 2-deoxyglucose stress, uHTS hits (AID 588780)).
With `NS(=O)(=O)c1ccc(CCNC(=O)c2ccc(C#CC3(O)CCCCC3)cc2)cc1` the IC50 was > 79 µM (inactive).
`O=c1c2ccccc2nc2c3ccccc3c(NCCO)nn12` was tested, and the IC50 was 45.5 µM (inactive).
With `COc1ccc(-c2csc(NC(=O)c3cccc(N4C(=O)CCC4=O)c3)n2)cc1OC` the IC50 was 10.6 µM.
`CC1CCCN(Cc2nc3c(c(=O)n(C)c(=O)n3C)n2CCCc2ccccc2)C1` (stereo not drawn) was tested, and the IC50 was 35 µM (inactive).
In the case of `O=c1[nH]c2cccc(F)c2n2cccc12`, the IC50 is reported as 8.05 µM.
For `COc1cc(NC(=O)c2cc3ccccc3cc2OC)ccc1NC(=O)c1cccs1`, the IC50 was > 79 µM (inactive).
Compound `O=C(c1cc2nc(-c3ccccc3)cc(-c3ccccc3)n2n1)N1CCN(C(=O)c2ccco2)CC1` has an IC50 of 9.32 µM.
For `O=C(O)c1nn(CC(=O)N2CCN(c3ccccc3)CC2)c(=O)c2ccccc12`, the IC50 was > 79 µM (inactive).
`COc1ccc(CC(=O)NCC(=O)N/N=C/c2cc(Br)ccc2OC)cc1` was tested, and the IC50 was > 79 µM (inactive).
With `CN(CC(=O)Nc1ccccc1Cl)C(=O)CCc1nc2ccccc2c(=O)[nH]1` the IC50 was 38 µM (inactive).
`O=C(CCn1c(=O)oc2ccccc21)N(Cc1ccccc1)c1ccccc1` was tested, and the IC50 was > 79 µM (inactive).
`CCOc1ccc(CC(=O)Nc2c(C(N)=O)oc3ccc(Br)cc23)cc1OCC` was tested, and the IC50 was > 79 µM (inactive).
`Cc1nn(-c2ccccc2)nc1C(=O)Nc1cccc(C(=O)NC2CC2)c1` was tested, and the IC50 was > 79 µM (inactive).
Work on `CC(=O)c1ccc(N2CCN(C(=O)c3cc(-c4cccnc4)nc4ccc(Br)cc34)CC2)cc1` yielded an IC50 of 11 µM.
For `N#Cc1ccc(OCC(=O)Nc2nc(-c3ccccn3)cs2)cc1`, the IC50 was > 79 µM (inactive).
In the case of `Cn1c(=O)c2[nH]c(NN=Cc3ccc(Br)cc3)nc2n(C)c1=O`, the IC50 is reported as > 79 µM (inactive).
In the case of `Cc1ccc(C(=O)Nc2nc(-c3ccccn3)cs2)s1`, the IC50 is reported as > 79 µM (inactive).
In the case of `COc1ccccc1CN(Cc1nc2ccccc2c(=O)[nH]1)S(=O)(=O)c1ccc2ccccc2c1`, the IC50 is reported as > 79 µM (inactive).
`O=C(N/N=C/c1ccc2c(c1)OCO2)c1ccc(NC(=O)c2ccccc2Cl)cc1` showed an IC50 of 16.2 µM.
`Cc1cc(C(=O)COc2ccccc2C(N)=O)c(C)n1C` gave an IC50 of 25.3 µM.
With `COc1ccc(N/C=C(\C#N)c2nc3ccccc3n2C)c(OC)c1` the IC50 was > 79 µM (inactive).
For `COc1cc2c(C#CCCO)c(-c3ccsc3)oc(=O)c2cc1OC`, the IC50 was > 79 µM (inactive).
For `NC(=O)c1nsc(C(=O)N(c2ccccc2)C(C(=O)NCc2ccc(F)cc2)c2ccc(O)cc2)c1N` (stereo not drawn), the IC50 was > 79 µM (inactive).
In the case of `COc1cc(C(=O)NCCCNc2nc3cc(C)cc(C)c3cc2C#N)cc(OC)c1OC`, the IC50 is reported as 45.6 µM (inactive).
In the case of `Oc1ccc(Cl)cc1C=Nc1ccc2c3c(cccc13)CC2`, the IC50 is reported as > 79 µM (inactive).
With `O=C(CN1CCCCC1)Nc1nc(-c2ccc(F)c(F)c2)cs1` the IC50 was 70.7 µM (inactive).
In the case of `CN(CC(=O)Nc1ccccc1Br)C(=O)Cn1[nH]c(=O)c2ccccc2c1=O`, the IC50 is reported as > 79 µM (inactive).
`Oc1ccc(Br)cc1C=Nc1ccc2c3c(cccc13)CC2` was tested, and the IC50 was 59.1 µM (inactive).
`Cc1sc2nc(COC(=O)Cc3ccccc3)[nH]c(=O)c2c1C` was tested, and the IC50 was > 79 µM (inactive).
In the case of `CC(=O)Nc1cccc(-c2cc(NC=O)c3ncc(-c4cccc(C(C)=O)c4)n3c2)c1`, the IC50 is reported as > 79 µM (inactive).
With `Cc1ccc2c(C)nc(Nc3nc(CSc4nc5ccccc5[nH]4)cc(=O)[nH]3)nc2c1` the IC50 was > 79 µM (inactive).
For `Cc1c(/C=N/NC(=O)c2ccc(O)cc2)c2ccccn2c1C(=O)c1ccc(F)cc1`, the IC50 was > 79 µM (inactive).
In the case of `O=c1[nH]c2cc(F)ccc2c2ccc(F)cc12`, the IC50 is reported as 73.6 µM (inactive).
`Cc1c(Cl)cccc1NC(=O)CNC(=O)Cc1n[nH]c(=O)c2ccccc12` was tested, and the IC50 was > 79 µM (inactive).
With `COC(=O)Sc1nc(N2CCOCC2)c2c(c1C#N)CC(C)(C)OC2` the IC50 was > 79 µM (inactive).
For `O=c1[nH]n(Cc2ccccc2)c(=O)c2ccccc12`, the IC50 was > 79 µM (inactive).
`C[C@H](CO)N1C[C@H](C)[C@@H](CN(C)S(=O)(=O)c2ccccc2)Oc2ccc(NC(=O)Nc3ccccc3)cc2C1=O` showed an IC50 of 24.2 µM.
For `CCc1nc(N2CCN(C(=O)c3ccco3)CC2)c2oc3ccccc3c2n1`, the IC50 was > 79 µM (inactive).
For `CCN(C[C@H]1N[C@@](C)(C(=O)OC)[C@H]2C(=O)N(Cc3ccccc3)C(=O)[C@@H]12)C(=O)c1ccc(C(C)(C)C)cc1`, the IC50 was > 79 µM (inactive).
For `CCC(c1nnnn1Cc1ccccc1)N1CCC(n2c(=O)[nH]c3ccccc32)CC1` (stereo not drawn), the IC50 was > 79 µM (inactive).
With `Cc1ccc(-c2[nH]c3cc(C(N)=O)ccc3c(=O)c2O)cc1` the IC50 was > 79 µM (inactive).
Work on `Cc1ccc(S(=O)(=O)N2CCOCC2)cc1C(=O)Nc1nc(-c2ccccn2)cs1` yielded an IC50 of 9.58 µM.
Work on `Cc1nnc(SCC(=O)N/N=C/c2cn(-c3ccccc3)nc2-c2ccccc2)n1-c1ccccc1` yielded an IC50 of 14 µM.
With `CCOC(=O)c1nc(Nc2ccc(C(=O)OC)cc2)c2ccccc2n1` the IC50 was > 79 µM (inactive).
In the case of `CC(C)(C)NC(=O)c1cc(NC(=O)c2cccs2)cc(NC(=O)c2cccs2)c1`, the IC50 is reported as > 79 µM (inactive).
With `CCOC(=O)c1cnc2ccc(C(=O)OC)cc2c1NCCc1ccc(OC)c(OC)c1` the IC50 was > 79 µM (inactive).
In the case of `CCN(CC)C(=O)c1ccc(-c2nnc(Nc3ccc(O)cc3)c3ccccc23)cc1`, the IC50 is reported as 71.4 µM (inactive).
`COc1ccccc1N1CCN(C(=O)c2ccc3nc(-c4ccco4)c(-c4ccco4)nc3c2)CC1` gave an IC50 of 17.6 µM.
